Test results published in ChEMBL document CHEMBL1141204, “Carbonic anhydrase activators: X-ray crystal structure of the adduct of human isozyme II with L-histidine as a platform for the design of stronger activators” (Bioorg Med Chem Lett, 2005).

molecular target: Carbonic anhydrase 4 (Homo sapiens) (UniProt P22748); assay: Activation constant against recombinant human CA IV isozyme by the esterase method; type: functional
Sequence (P22748 whole entry): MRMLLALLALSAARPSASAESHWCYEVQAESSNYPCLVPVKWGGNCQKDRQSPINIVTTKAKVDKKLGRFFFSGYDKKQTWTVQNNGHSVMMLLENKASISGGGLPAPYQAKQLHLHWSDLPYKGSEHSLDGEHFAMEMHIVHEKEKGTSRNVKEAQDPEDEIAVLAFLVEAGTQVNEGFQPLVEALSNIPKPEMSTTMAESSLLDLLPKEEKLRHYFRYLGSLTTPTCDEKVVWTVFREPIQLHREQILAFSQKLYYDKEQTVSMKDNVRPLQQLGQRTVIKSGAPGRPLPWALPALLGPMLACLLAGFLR

| SMILES | KA |
| --- | --- |
| COC(=O)[C@@H](N)Cc1c[nH]cn1 | 23 µM |
| NCCc1c[nH]cn1 | 37 µM |
| N[C@@H](Cc1c[nH]cn1)C(=O)O | 33 µM |
| NCCC(=O)N[C@@H](Cc1c[nH]cn1)C(=O)O | 15 µM |
| N[C@@H](Cc1ccccc1)C(=O)O | 4.6 µM |
